In ChEMBL document CHEMBL1201862, “PubChem BioAssay data set” (2004):
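Assay format: 96-well plates, 48-hour exposure. The concentration for 50% growth inhibition is given as GI50.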 Activity calls are given as the source filed them. Rule as the data show it: active = GI50 up to about 1.1 µM and inactive = higher. Peptide text beside a SMILES is read from it. * marks the point of attachment. Boc = CC(C)(C)OC(=O)*

Columns and labels:
Test in all cases: inhibition of tumour cell growth, NCI panel, 48 h
[1] = system: Hs-578T
[2] = system: Malme-3M
[3] = system: SK-MEL-28
[4] = system: CAKI-1
[5] = system: SR
[6] = system: PC-3
[7] = system: UO-31
[8] = system: HOP-62
[9] = system: NCI-H226
[10] = system: MCF7
[11] = system: OVCAR-4
[12] = system: TK-10
[13] = system: COLO 205
[14] = system: OVCAR-5
[15] = system: HL-60
[16] = system: SF-539
[17] = system: T47D
[18] = system: SN12C
[19] = system: MDA-N
[20] = system: MDA-MB-231

SMILES | GI50 [1] | GI50 [2] | GI50 [3] | GI50 [4] | GI50 [5] | GI50 [6] | GI50 [7] | GI50 [8] | GI50 [9] | GI50 [10] | GI50 [11] | GI50 [12] | GI50 [13] | GI50 [14] | GI50 [15] | GI50 [16] | GI50 [17] | GI50 [18] | GI50 [19] | GI50 [20]
COc1ccc2c(c1)c(=O)c1c(NCCCN(C)C)ccc3ncn2c31 | 10.6 µM (inactive) | 11.6 µM (inactive) | 13.2 µM (inactive) | 5.68 µM (inactive) | 2.19 µM (inactive) | 2.65 µM (inactive) | 2.62 µM (inactive) | 0.783 µM (active) | 2.9 µM (inactive) | 0.714 µM (active) | 1.15 µM (inactive) | 6.1 µM (inactive) | 2.8 µM (inactive) | 12.3 µM (inactive) | 4.42 µM (inactive) | 3.93 µM (inactive) | 16.3 µM (inactive) | 1.72 µM (inactive) | 5.37 µM (inactive) | 
Cc1ccc(S(=O)(=O)N2CCCCN(S(=O)(=O)c3ccc(C)cc3)Cc3ccccc3OCCOCCOc3c4cccc3Cc3cccc5c3OCCOCCOc3ccccc3CN(S(=O)(=O)c3ccc(C)cc3)CCCN(S(=O)(=O)c3ccc(C)cc3)Cc3ccccc3OCCOCCOc3c(cccc3C4)Cc3cccc(c3OCCOCCOc3ccccc3C2)C5)cc1 | > 100 µM (inactive) | > 100 µM (inactive) |  | > 100 µM (inactive) |  | > 100 µM (inactive) | > 100 µM (inactive) | > 100 µM (inactive) | > 100 µM (inactive) | > 100 µM (inactive) | > 100 µM (inactive) | > 100 µM (inactive) | > 100 µM (inactive) | > 100 µM (inactive) |  | > 100 µM (inactive) | > 100 µM (inactive) | > 100 µM (inactive) | > 100 µM (inactive) | > 100 µM (inactive)
Cc1oc2c(c1C)S(=O)(=O)C(C#N)C(c1ccccc1)N2 (stereo not drawn) | 30.9 µM (inactive) | 37.7 µM (inactive) | > 100 µM (inactive) | 36.1 µM (inactive) |  | 66.5 µM (inactive) | 41.5 µM (inactive) | > 100 µM (inactive) | > 100 µM (inactive) | 51.5 µM (inactive) | 29.6 µM (inactive) | > 100 µM (inactive) | 29.3 µM (inactive) | 91.6 µM (inactive) |  | 39.6 µM (inactive) | 62.5 µM (inactive) | 49.8 µM (inactive) | 29 µM (inactive) | > 100 µM (inactive)
CCOCC(NC(=O)C(CC(C)C)NC(=O)OC(C)(C)C)C(N)=O (stereo not drawn) (Boc-Leu-Ser(Et)-NH2; configuration not given here) | > 100 µM (inactive) | > 100 µM (inactive) | 1.31 µM (inactive) | > 100 µM (inactive) |  | > 100 µM (inactive) | > 100 µM (inactive) | > 100 µM (inactive) | > 100 µM (inactive) | > 100 µM (inactive) | > 100 µM (inactive) | > 100 µM (inactive) | > 100 µM (inactive) | > 100 µM (inactive) | > 100 µM (inactive) | > 100 µM (inactive) | > 100 µM (inactive) | > 100 µM (inactive) | > 100 µM (inactive) | > 100 µM (inactive)
Cn1c2ccccc2c(=O)c2cccc(C(=O)NC(CCCNC(=N)N)C(=O)O)c21 (stereo not drawn) | > 100 µM (inactive) | > 100 µM (inactive) | > 100 µM (inactive) |  |  | > 100 µM (inactive) | > 100 µM (inactive) | > 100 µM (inactive) | > 100 µM (inactive) | > 100 µM (inactive) | > 100 µM (inactive) | > 100 µM (inactive) | > 100 µM (inactive) | > 100 µM (inactive) |  | > 100 µM (inactive) | > 100 µM (inactive) | > 100 µM (inactive) | > 100 µM (inactive) | > 100 µM (inactive)
CNC(=O)OC1/C(C)=C\C(C)C(O)C(OC)CC(C)CC2=C(OC)C(=O)C=C(C2=O)N(C)C(=O)/C(C)=C/C=C\C1OC (stereo not drawn) | 4.03 µM (inactive) | 5.69 µM (inactive) | 2.88 µM (inactive) | 7.4 µM (inactive) |  | 11.5 µM (inactive) | 7.69 µM (inactive) | 14.4 µM (inactive) | 19.5 µM (inactive) |  | 9.23 µM (inactive) | 7.64 µM (inactive) | 0.424 µM (active) | 13.1 µM (inactive) |  | 8.32 µM (inactive) | 1.57 µM (inactive) | 3.62 µM (inactive) | 1.33 µM (inactive) | 2.05 µM (inactive)
Clc1ccc(OCc2nnc3sc(-c4ccc(-c5ccc(Cl)cc5Cl)o4)nn23)cc1 | > 100 µM (inactive) | > 100 µM (inactive) | > 100 µM (inactive) | > 100 µM (inactive) | > 100 µM (inactive) | > 100 µM (inactive) | > 100 µM (inactive) | > 100 µM (inactive) | > 100 µM (inactive) |  | > 100 µM (inactive) | > 100 µM (inactive) | > 100 µM (inactive) | > 100 µM (inactive) | > 100 µM (inactive) |  | > 100 µM (inactive) | > 100 µM (inactive) | > 100 µM (inactive) | > 100 µM (inactive)
CC(=O)Nc1c(C)cc2c(nc3n2CCC3O)c1[N+](=O)[O-] (stereo not drawn) | > 100 µM (inactive) | > 100 µM (inactive) | > 100 µM (inactive) | > 100 µM (inactive) |  | > 100 µM (inactive) | > 100 µM (inactive) |  | > 100 µM (inactive) | > 100 µM (inactive) | > 100 µM (inactive) |  | > 100 µM (inactive) | > 100 µM (inactive) | > 100 µM (inactive) | > 100 µM (inactive) | > 100 µM (inactive) | > 100 µM (inactive) | > 100 µM (inactive) | > 100 µM (inactive)
Cn1c2ccc3cc2c(=S)c2cc(ccc21)OCCOCCOCCOCCOCCOCCO3 | > 10 µM (inactive) | > 10 µM (inactive) | > 10 µM (inactive) | > 10 µM (inactive) | > 10 µM (inactive) | > 10 µM (inactive) | > 10 µM (inactive) | > 10 µM (inactive) | > 10 µM (inactive) | > 10 µM (inactive) | > 10 µM (inactive) | > 10 µM (inactive) | > 10 µM (inactive) | > 10 µM (inactive) | > 10 µM (inactive) | > 10 µM (inactive) | > 10 µM (inactive) | > 10 µM (inactive) | > 10 µM (inactive) | 
COc1ccc(N[S+]([O-])c2ccccc2OC)cc1 (stereo not drawn) | 21.7 µM (inactive) | 19.6 µM (inactive) | 54.8 µM (inactive) | 25.8 µM (inactive) | 11.9 µM (inactive) |  | 12.3 µM (inactive) | 37.2 µM (inactive) | 13.4 µM (inactive) | 20.2 µM (inactive) | 53.7 µM (inactive) | > 100 µM (inactive) | 24.4 µM (inactive) | 46.5 µM (inactive) | 17.7 µM (inactive) | 18.2 µM (inactive) | 4.37 µM (inactive) | > 100 µM (inactive) | 33.4 µM (inactive) | 15 µM (inactive)
CO/C(N)=C(C#N)/N=C/c1ccco1 | > 100 µM (inactive) | > 100 µM (inactive) | > 100 µM (inactive) | > 100 µM (inactive) |  | > 100 µM (inactive) | > 100 µM (inactive) | > 100 µM (inactive) | > 100 µM (inactive) | > 100 µM (inactive) | > 100 µM (inactive) | > 100 µM (inactive) | > 100 µM (inactive) | > 100 µM (inactive) | > 100 µM (inactive) |  | > 100 µM (inactive) | > 100 µM (inactive) | > 100 µM (inactive) | > 100 µM (inactive)
